≈ marks a conversion by molar mass, not a printed value. Calls of active or inactive are those of the source. No cut-off for these calls is given here.
Tests used:
[1] = molecular target: Collagenase ColQ1 (Bacillus cereus) (UniProt B9J3S4); assay: Inhibition of full length Bacillus cereus ColQ1 assessed as reduction in Col 1 cleavage at 1.5 to 12.5 uM incubated for 3 hrs by SDS-PAGE analysis; settings: dose 1.5-12.5 µM
NHDF [2] = assay: Inhibition of Bacillus cereus collagenase infected in NHDF cells assessed as suppression of gelatin lysis at 200 uM incubated for 1 to 6 hrs by coomassie brilliant blue staining based zymography analysis; assay type: cell-based; settings: time 1-6 hrs
NHDF [3] = assay: Inhibition of Bacillus cereus collagenase infected in NHDF cells assessed as protection of spindle shape morphology at > 100 uM incubated for 1 to 6 hrs by coomassie brilliant blue staining based SDS-PAGE analysis; assay type: cell-based; settings: time 1-6 hrs
NHDF [4] = assay: Inhibition of Bacillus cereus collagenase infected in NHDF cells assessed as fibrillar extra cellular matrix at > 100 uM incubated for 1 to 6 hrs by coomassie brilliant blue staining based SDS-PAGE analysis; assay type: cell-based; settings: time 1-6 hrs
NHDF [5] = assay: Inhibition of Bacillus cereus collagenase infected in NHDF cells assessed as reduction in LDH release at > 100 uM incubated for 30 mins by LDH assay; assay type: cell-based
HepG2 = assay: Cytotoxicity against human HepG2 cells assessed as reduction in cell viability; assay type: functional, cell-based
NHDF [6] = assay: Inhibition of Bacillus cereus collagenase infected in NHDF cells assessed as suppression of gelatin lysis at 100 uM incubated for 1 to 6 hrs by coomassie brilliant blue staining based zymography analysis; assay type: cell-based; settings: time 1-6 hrs
NHDF [7] = assay: Inhibition of Bacillus cereus collagenase infected in NHDF cells assessed as prevention of cell detachment at 25 uM incubated for 1 to 6 hrs by coomassie brilliant blue staining based SDS-PAGE analysis; settings: time 1-6 hrs
NHDF [8] = assay: Inhibition of Bacillus cereus collagenase infected in NHDF cells assessed as protection of spindle shape morphology at > 50 uM incubated for 1 to 6 hrs by coomassie brilliant blue staining based SDS-PAGE analysis; assay type: cell-based; settings: time 1-6 hrs
NHDF [9] = assay: Inhibition of Bacillus cereus collagenase infected in NHDF cells assessed as reduction in LDH release at > 50 uM incubated for 30 mins by LDH assay; assay type: cell-based
Bacillus cereus [10] = assay: In vivo inhibition of Bacillus cereus AH187 ColQ1 infected in Galleria mellonella larvae assessed as increase in survival rate at 100 uM incubated for 3 days; assay type: functional; settings: AH187, 72 h, time 3 day
Collagenase ColH [11] = molecular target: T1, Collagenase ColH (Hathewaya histolytica, UniProt Q46085); assay: Inhibition of Clostridium histolyticum CoLH assessed as inhibition constant using M MOCAcPro-Leu-Gly-Leu-A2pr-(DNP)Ala-Arg-NH2 as substrate incubated for 10 mins by fluorescence spectrophotometer analysis
T1 sequence (Q46085 whole entry): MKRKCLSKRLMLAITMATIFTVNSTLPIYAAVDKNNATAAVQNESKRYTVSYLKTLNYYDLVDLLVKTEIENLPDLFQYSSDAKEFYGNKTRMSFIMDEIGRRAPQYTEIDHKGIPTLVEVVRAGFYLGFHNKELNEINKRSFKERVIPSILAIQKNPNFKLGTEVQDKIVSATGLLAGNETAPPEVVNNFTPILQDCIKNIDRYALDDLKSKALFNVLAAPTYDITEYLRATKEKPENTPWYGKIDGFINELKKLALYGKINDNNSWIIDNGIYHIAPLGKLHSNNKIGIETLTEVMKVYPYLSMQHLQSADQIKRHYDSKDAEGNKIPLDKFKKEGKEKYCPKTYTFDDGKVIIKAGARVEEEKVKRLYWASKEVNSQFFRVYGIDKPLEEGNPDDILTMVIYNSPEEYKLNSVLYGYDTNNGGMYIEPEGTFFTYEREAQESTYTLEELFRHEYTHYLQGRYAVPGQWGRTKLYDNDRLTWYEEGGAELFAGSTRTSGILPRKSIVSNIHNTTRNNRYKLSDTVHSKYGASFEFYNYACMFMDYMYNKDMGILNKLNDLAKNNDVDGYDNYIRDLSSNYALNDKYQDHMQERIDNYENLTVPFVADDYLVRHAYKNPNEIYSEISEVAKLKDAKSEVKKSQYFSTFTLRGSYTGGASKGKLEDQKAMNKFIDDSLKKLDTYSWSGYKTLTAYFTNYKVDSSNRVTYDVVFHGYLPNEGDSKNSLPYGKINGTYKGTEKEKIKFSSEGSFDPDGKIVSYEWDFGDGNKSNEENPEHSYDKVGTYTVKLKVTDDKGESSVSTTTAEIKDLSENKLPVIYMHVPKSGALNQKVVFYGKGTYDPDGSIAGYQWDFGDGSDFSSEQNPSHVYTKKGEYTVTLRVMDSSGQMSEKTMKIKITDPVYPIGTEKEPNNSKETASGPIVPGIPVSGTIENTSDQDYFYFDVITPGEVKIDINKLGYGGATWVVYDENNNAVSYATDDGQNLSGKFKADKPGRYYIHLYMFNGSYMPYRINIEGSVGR

Collagenase ColH [12] = molecular target: T1, Collagenase ColH; assay: Inhibition of Clostridium histolyticum CoLH
[13] = molecular target: Collagenase ColQ1 (Bacillus cereus) (UniProt B9J3S4); settings: dose 100.0 µM, time 144.0 sec
NHDF [14] = assay: Inhibition of Bacillus cereus collagenase infected in NHDF cells assessed as reduction in cell viability at 25 to 100 uM; assay type: cell-based; settings: dose 25-100 µM
NHDF [15] = assay: Inhibition of Bacillus cereus collagenase infected in NHDF cells assessed as prevention of cell detachment at 25 to 100 uM incubated for 1 to 6 hrs by coomassie brilliant blue staining based SDS-PAGE analysis; settings: dose 25-100 µM, time 1-6 hrs
Collagenase ColH [16] = molecular target: T1, Collagenase ColH; assay: Inhibition of Clostridium histolyticum CoLH using M MOCAcPro-Leu-Gly-Leu-A2pr-(DNP)Ala-Arg-NH2 as substrate incubated for 10 mins by fluorescence spectrophotometer analysis
[17] = molecular target: 72 kDa type IV collagenase (Homo sapiens, UniProt P08253); assay: Inhibition of human MMP-2 assessed as inhibition constant using AcProLeuGly-S-LeuLeuGlyOEt as substrate by spectrophotometer analysis
Chain of 72 kDa type IV collagenase (P08253 whole entry): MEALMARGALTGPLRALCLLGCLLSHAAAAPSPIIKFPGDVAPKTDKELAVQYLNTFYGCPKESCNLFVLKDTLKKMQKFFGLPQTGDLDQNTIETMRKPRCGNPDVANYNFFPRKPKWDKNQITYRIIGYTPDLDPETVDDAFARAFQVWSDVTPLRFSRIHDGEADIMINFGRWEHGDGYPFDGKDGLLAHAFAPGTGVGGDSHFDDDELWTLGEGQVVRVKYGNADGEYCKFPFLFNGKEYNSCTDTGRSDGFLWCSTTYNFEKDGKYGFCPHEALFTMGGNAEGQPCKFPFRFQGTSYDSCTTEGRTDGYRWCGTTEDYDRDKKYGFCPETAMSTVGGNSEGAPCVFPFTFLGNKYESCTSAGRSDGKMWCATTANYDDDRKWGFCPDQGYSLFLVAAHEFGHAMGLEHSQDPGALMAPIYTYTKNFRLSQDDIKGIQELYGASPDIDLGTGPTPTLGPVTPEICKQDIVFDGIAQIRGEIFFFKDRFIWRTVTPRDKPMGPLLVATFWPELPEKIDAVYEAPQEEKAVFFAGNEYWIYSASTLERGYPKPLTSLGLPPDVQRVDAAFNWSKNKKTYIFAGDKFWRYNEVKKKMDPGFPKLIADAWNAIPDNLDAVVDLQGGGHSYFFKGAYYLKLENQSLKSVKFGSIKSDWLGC

Neutrophil collagenase = Neutrophil collagenase (Homo sapiens, UniProt P22894); assay: Inhibition of human MMP-8 assessed as inhibition constant using AcProLeuGly-S-LeuLeuGlyOEt as substrate by spectrophotometer analysis
Chain of Neutrophil collagenase (P22894 whole entry): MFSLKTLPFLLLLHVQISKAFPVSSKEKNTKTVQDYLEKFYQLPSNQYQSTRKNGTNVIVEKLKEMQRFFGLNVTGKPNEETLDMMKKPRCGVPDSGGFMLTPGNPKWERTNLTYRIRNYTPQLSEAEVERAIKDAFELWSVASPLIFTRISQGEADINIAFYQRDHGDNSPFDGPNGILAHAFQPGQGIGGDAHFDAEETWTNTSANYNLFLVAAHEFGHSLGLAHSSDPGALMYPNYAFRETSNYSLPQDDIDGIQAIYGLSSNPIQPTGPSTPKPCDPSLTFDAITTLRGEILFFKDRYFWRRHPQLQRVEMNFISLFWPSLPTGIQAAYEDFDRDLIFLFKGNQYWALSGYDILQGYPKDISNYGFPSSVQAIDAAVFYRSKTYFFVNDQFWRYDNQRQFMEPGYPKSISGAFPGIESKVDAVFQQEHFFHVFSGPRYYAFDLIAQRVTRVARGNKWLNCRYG

NHDF [18] = assay: Inhibition of Bacillus cereus collagenase infected in NHDF cells assessed as suppression of gelatin lysis incubated for 1 to 6 hrs by coomassie brilliant blue staining based zymography analysis; assay type: cell-based; settings: dose 12.5-100 µM, time 1-6 hrs
[19] = molecular target: T2, Collagenase ColH (Hathewaya histolytica) (UniProt Q46085); assay: Reversible inhibition of Clostridium histolyticum peptidase domain of ColH at 1.25 uM using quenched fluorescent FSI-1 as substrate incubated for 2 min by rapid dilution assay
T2 sequence (whole entry): T1 sequence (Q46085 whole entry)

[20] = molecular target: T3, Collagenase ColG (Clostridium histolyticum) (UniProt Q9X721); assay: Reversible inhibition of Clostridium histolyticum collagenase unit of ColG at 7.5 uM using quenched fluorescent FSI-1 as substrate incubated for 2 min by rapid dilution assay; settings: Hathewaya histolytica
T3 sequence (whole entry): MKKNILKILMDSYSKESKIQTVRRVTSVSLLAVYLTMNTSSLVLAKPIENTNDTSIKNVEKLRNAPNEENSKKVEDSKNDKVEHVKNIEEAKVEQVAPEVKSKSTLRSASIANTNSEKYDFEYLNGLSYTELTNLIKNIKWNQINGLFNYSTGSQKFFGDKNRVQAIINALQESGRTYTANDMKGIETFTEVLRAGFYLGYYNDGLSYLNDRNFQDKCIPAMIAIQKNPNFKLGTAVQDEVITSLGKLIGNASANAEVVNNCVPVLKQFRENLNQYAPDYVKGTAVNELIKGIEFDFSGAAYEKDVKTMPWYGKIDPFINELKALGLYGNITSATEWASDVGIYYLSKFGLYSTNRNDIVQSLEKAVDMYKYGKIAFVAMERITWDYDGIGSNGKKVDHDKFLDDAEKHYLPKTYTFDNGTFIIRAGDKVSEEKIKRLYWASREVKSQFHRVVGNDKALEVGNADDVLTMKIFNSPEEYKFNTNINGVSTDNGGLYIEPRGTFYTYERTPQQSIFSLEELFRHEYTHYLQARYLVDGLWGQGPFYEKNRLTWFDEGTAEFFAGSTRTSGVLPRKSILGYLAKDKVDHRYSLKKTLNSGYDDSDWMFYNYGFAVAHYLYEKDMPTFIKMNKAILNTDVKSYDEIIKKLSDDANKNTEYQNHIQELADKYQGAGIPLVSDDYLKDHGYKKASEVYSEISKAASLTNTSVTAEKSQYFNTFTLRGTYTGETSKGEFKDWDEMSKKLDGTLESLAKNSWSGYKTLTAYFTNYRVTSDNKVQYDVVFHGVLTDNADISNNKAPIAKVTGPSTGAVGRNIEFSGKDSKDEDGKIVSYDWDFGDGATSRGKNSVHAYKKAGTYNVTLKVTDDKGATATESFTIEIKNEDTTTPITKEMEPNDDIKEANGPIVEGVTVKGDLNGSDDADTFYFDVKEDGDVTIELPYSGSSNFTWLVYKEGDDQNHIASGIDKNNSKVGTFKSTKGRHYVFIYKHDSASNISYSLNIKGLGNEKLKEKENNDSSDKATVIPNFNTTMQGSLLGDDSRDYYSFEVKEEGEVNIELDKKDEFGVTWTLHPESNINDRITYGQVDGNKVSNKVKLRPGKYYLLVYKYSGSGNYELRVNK

[21] = molecular target: Collagenase ColA (Bacillus cereus) (UniProt Q81BJ6); assay: Irreversible inhibition of Bacillus cereus collagenase unit ColA at 0.125 uM using quenched fluorescent FSI-1 as substrate incubated for 2 min by rapid dilution assay
Chain of Collagenase ColA (Bacillus cereus) (Q81BJ6 whole entry): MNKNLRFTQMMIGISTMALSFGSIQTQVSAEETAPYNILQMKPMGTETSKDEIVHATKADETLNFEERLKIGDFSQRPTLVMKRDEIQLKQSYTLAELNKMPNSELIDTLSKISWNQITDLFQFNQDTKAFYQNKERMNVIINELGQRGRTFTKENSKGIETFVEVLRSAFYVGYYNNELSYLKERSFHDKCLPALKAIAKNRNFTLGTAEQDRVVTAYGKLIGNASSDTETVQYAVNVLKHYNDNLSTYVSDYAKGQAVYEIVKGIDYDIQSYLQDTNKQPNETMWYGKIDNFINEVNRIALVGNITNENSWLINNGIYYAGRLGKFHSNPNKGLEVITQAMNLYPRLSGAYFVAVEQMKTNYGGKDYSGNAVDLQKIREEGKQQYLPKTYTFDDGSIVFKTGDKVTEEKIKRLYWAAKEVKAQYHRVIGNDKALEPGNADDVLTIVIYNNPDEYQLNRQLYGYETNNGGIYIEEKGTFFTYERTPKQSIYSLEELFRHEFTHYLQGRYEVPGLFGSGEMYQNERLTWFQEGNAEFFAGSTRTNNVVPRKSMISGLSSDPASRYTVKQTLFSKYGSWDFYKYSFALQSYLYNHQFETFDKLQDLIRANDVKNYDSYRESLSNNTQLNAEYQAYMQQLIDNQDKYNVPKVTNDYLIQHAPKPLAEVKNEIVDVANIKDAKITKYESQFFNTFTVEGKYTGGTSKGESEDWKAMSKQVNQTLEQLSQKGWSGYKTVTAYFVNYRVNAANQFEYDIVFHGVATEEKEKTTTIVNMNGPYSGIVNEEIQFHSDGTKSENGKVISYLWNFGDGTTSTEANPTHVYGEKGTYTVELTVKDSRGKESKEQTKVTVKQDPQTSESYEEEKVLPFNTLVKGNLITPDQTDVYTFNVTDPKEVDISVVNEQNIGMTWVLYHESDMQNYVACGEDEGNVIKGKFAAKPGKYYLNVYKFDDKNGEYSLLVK

[22] = Stability of compound in DMEM medium at 200 uM incubated for 2 hrs by LC-MS analysis; assay type: physicochemical
[23] = molecular target: Collagenase ColA (Bacillus cereus) (UniProt Q81BJ6); assay: Reversible inhibition of Bacillus cereus collagenase unit ColA at 4.375 uM using quenched fluorescent FSI-1 as substrate incubated for 2 min by rapid dilution assay
NHDF [24] = assay: Inhibition of Bacillus cereus collagenase infected in NHDF cells assessed as reduction in cell viability at 100 uM; assay type: cell-based
NHDF [25] = assay: Inhibition of Bacillus cereus collagenase infected in NHDF cells assessed as prevention of cell detachment at 100 uM incubated for 1 to 6 hrs by coomassie brilliant blue staining based SDS-PAGE analysis; settings: time 1-6 hrs
Bacillus cereus [26] = assay: Antibacterial activity against Bacillus cereus AH187 assessed as minimal inhibitory concentration incubated for 48 hrs microplate reader analysis; assay type: functional
Bacillus cereus [27] = assay: In vivo inhibition of Bacillus cereus AH187 ColQ1 infected in Galleria mellonella larvae assessed as increase in survival rate at 200 uM incubated for 3 days; assay type: functional; settings: AH187, 72 h, time 3 day

Chain of Collagenase ColQ1 (Bacillus cereus) (B9J3S4 whole entry): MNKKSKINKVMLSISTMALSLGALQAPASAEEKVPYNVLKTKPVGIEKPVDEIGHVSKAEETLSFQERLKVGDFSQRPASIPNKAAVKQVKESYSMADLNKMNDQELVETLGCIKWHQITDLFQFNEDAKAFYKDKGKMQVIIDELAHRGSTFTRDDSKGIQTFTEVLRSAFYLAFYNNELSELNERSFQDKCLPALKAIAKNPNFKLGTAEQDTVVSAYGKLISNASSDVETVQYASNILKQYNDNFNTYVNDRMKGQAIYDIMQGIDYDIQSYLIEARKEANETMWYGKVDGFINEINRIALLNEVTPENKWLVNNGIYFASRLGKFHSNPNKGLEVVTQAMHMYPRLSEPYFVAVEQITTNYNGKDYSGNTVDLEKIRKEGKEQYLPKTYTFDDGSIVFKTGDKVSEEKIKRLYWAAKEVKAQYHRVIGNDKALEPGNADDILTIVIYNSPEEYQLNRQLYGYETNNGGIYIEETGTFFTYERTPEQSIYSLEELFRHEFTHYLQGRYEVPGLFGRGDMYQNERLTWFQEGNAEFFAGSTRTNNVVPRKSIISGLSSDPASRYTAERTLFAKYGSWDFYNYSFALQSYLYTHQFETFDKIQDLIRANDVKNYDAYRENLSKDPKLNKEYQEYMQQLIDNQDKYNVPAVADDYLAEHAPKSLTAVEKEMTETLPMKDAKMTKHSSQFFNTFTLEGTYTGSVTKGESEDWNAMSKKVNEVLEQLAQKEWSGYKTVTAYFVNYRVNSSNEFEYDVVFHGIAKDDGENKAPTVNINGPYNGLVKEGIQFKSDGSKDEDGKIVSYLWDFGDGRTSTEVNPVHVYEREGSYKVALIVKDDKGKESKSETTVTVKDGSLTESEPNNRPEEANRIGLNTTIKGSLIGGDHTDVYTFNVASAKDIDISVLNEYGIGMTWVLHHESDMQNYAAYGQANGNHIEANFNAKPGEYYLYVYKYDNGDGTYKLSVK

SMILES: O=P(O)(O)c1nc2ccccc2nc1P(=O)(O)O
- inhibition [1]: Active

SMILES: NCCCC(O)(P(=O)(O)O)P(=O)(O)O
- inhibition (NHDF [2]): Active
- inhibition (NHDF [3]): Active
- inhibition (NHDF [4]): Active
- inhibition (NHDF [5]): Active

SMILES: O=C(Nc1ccc(Cl)c(Cl)c1)c1ccc2nc(P(=O)(O)O)c(P(=O)(O)O)nc2c1
- IC50 (HepG2): > 100 µM
- inhibition (NHDF [6]): Active
- inhibition (NHDF [7]): Active
- inhibition (NHDF [8]): Active
- inhibition (NHDF [9]): Active
- inhibition in vivo at 100 µM (Bacillus cereus [10]): 50%

SMILES: CC(NC(=O)C(Cc1ccccc1)NC(=O)NS(=O)(=O)c1ccc(F)cc1)C(=O)Nc1nnc(S)s1 (centres undefined)
- Ki (Collagenase ColH [11]): 200 nM

SMILES: CC(=O)c1ccc(NC(=O)CSC(N)=O)cc1
- IC50 (Collagenase ColH [12]): 10 nM

SMILES: O=P(O)(O)C(Sc1ccc(Cl)cc1)P(=O)(O)O
- inhibition (NHDF [3]): Active
- inhibition (NHDF [4]): Active
- inhibition (NHDF [5]): Active

SMILES: O=P(O)(O)c1nc2ccc(F)cc2nc1P(=O)(O)O
- inhibition [13]: < 5%

SMILES: Cc1ccc2nc(P(=O)(O)O)c(P(=O)(O)O)nc2c1
- inhibition (NHDF [6]): Active
- inhibition (NHDF [14]): Active
- inhibition (NHDF [15]): Active

SMILES: O=C(O)CN(CC1c2ccccc2C=Cc2ccccc21)C(=O)NS(=O)(=O)c1ccc(F)cc1
- IC50 (Collagenase ColH [16]): 21 nM
- Ki [17]: 9 nM
- Ki (Neutrophil collagenase): 13 nM

SMILES: CCOP(=O)(OCC)c1nc2ccc(OC)cc2nc1P(=O)(OCC)OCC
- inhibition [13]: < 5%

SMILES: O=P(O)(O)c1nc2ccc(-c3ccc(Cl)cc3)cc2nc1P(=O)(O)O
- IC50 (HepG2): > 100 µM
- inhibition (NHDF [18]): Active
- inhibition (NHDF [3]): Active
- inhibition (NHDF [4]): Active
- inhibition (NHDF [5]): Active
- inhibition [19]: Active
- inhibition [20]: Active
- inhibition [21]: Active
- inhibition in vivo at 100 µM (Bacillus cereus [10]): 35%

SMILES: CC(=O)Nc1ccccc1OCc1cn(CCNC(=O)C(CC(C)C)C(=O)NO)nn1 (centres undefined)
- IC50 (HepG2): > 100 µM
- Stability [22]: Stable
- inhibition [23]: Active
- inhibition [19]: Active
- inhibition [20]: Active

SMILES: O=P(O)(O)c1nc2ccc(Br)cc2nc1P(=O)(O)O
- inhibition (NHDF [6]): Active
- inhibition (NHDF [24]): Active
- inhibition (NHDF [25]): Active

SMILES: O=P(O)(O)c1nc2cc(Cl)c(Cl)cc2nc1P(=O)(O)O
- inhibition (NHDF [2]): Active
- inhibition (NHDF [7]): Active
- inhibition (NHDF [8]): Active
- inhibition (NHDF [9]): Active
- inhibition [19]: Active
- inhibition [20]: Active
- inhibition [21]: Active
- MIC50 (Bacillus cereus [26]): 100 µM (≈ 35.9 µg/mL)
- inhibition in vivo at 200 µM (Bacillus cereus [27]): 35%

SMILES: COc1cc2ccc(=O)oc2cc1OC [SCOPARONE]
- IC50 (Collagenase ColH [16]): 24 nM

SMILES: CC(=O)Nc1ccccc1OCc1cn(CCNC(=O)C(Cc2ccccc2)C(=O)NO)nn1 (centres undefined)
- inhibition [23]: Active
- inhibition [19]: Active
- inhibition [20]: Active
